Literature values, collected in US9259405B2, “Method of treating functional somatic syndromes with combination of famciclovir and diclofenac” (INNOVATIVE MED CONCEPTS, LLC, priority 2012, dated 2016).

System: fibromyalgia patients
Details: J. Rheumatology (2004) 31, 783-784

CC(C)[C@H](N)C(=O)OCCOCn1cnc2c(=O)[nH]c(N)nc21 [valacyclovir]
treatment of fibromyalgia patients: not successful
